Data published in US12593845B2 (priority 2019, dated 2026).

Assays:
Aspergillus niger = assay: Antimicrobial test against Aspergillus niger; format: cell-based; conditions: 96 h, Vogel medium, 25° C., 4 days in the dark, turbidity at 405 nm, read-out: growth inhibition rate
Protocol: Spores of Aspergillus niger were added to and dispersed in a Vogel medium, and a dihydropyrimidine compound dissolved in dimethyl sulfoxide was added and mixed thereto at 25 ppm. The resulting solution was dispensed onto a 96-well microplate and cultivated in the dark at 25° C. for 4 days.
After the cultivation, the turbidity at a wavelength of 405 nm was measured by a microplate reader and compared with that in the untreated case to determine the growth inhibition of Aspergillus niger (%) was determined.

[1] = test system: apple scab pathogen (Venturia inaequalis); assay: Apple scab control test; format: in vivo; conditions: 336 h, 125 ppm drug solution sprayed onto apple seedlings (Orin), lesion area ratio 2 weeks after inoculation
Protocol: (§1) 5 parts by weight of the dihydropyrimidine compound of the present invention, 93.5 parts by weight of N,N-dimethylformamide, and 1.5 parts by weight of polyoxyethylene sorbitan monolaurate (TWEEN® 20) were mixed and dissolved to obtain an emulsion (I) including 5% of an active ingredient.
(§2) The control value was calculated by the following expression. Control value (%)=100−{lesion area ratio in treated group/lesion area ratio in untreated group}×100 [Expression 1]
Water was added to the emulsion (I) such that the concentration of the dihydropyrimidine compound reached 125 ppm to dissolve the emulsion, and a drug solution was obtained. Subsequently, the drug solution was sprayed onto apple seedlings (variety: “Orin”, leaf stage: 3 to 4) cultivated in seedling pots. After air drying, the seedlings were inoculated with conidiospores of an apple scab pathogen (Venturia inaequalis) (treated group). As a control, apple seedlings that were not sprayed with the drug solution were inoculated in the same manner (untreated group). The seedlings were left to stand in a humidified room at 20° C. using a 12 hour light/dark cycle.
On the day 2 weeks after the inoculation, the leaves of the apple seedlings were visually observed to determine the lesion area ratio, and the control value was calculated.

[2] = test system: wheat powdery mildew pathogen (Erysiphe graminis f. sp. tritici); assay: Wheat powdery mildew control test; format: in vivo; conditions: Blumeria graminis, 144 h; 125 ppm drug solution sprayed onto wheat seedlings (Chihoku); lesion area ratio 6 days after inoculation
Protocol: as §1, §2
Water was added to the emulsion (I) such that the concentration of the dihydropyrimidine compound reached 125 ppm to dissolve the emulsion, and a drug solution was obtained. Subsequently, the drug solution was sprayed onto wheat seedlings (variety: “Chihoku”, leaf stage: 1 to 2) cultivated in seedling pots. After air drying, conidiospores of a wheat powdery mildew pathogen (Erysiphe graminis f. sp. tritici) were sprinkled thereon for inoculation (treated group). As a control, wheat seedlings that were not sprayed with the drug solution were inoculated in the same manner as described above (untreated group). The seedlings were left to stand in a greenhouse at 20° C.
On the 6 days after the inoculation, the leaves of the wheat seedlings were visually observed to determine the lesion area ratio, and the control value was calculated.

[3] = test system: wheat powdery mildew pathogen (Erysiphe graminis f. sp. tritici); assay: Wheat powdery mildew seed treatment test; format: in vivo; conditions: Blumeria graminis, 168 h; seed treatment 100 g/100 kg wheat seeds (Chihoku); inoculation after 8 to 10 days; lesion area ratio 7 days after inoculation
Protocol: as §1, §2
The emulsion (I) was used to treat seeds such that (weight of dihydropyrimidine compound)/(weight of seeds) reached 100 g/100 kg based on the wheat seeds (variety: “Chihoku”). These seeds were disseminated in pots, and after 8 to 10 days, conidiospores of a wheat powdery mildew pathogen (Erysiphe graminis f. sp. tritici) were sprinkled thereon for inoculation (treated group). As a control, wheat seedlings that were not treated with the drug were inoculated in the same manner as described above (untreated group). The seedlings were left to stand in a greenhouse at 20° C.
(§3) On the 7 days after the inoculation, the leaves of the wheat seedlings were visually observed to determine the lesion area ratio, and the control value was calculated.

[4] = test system: wheat powdery mildew pathogen (Erysiphe graminis f. sp. tritici); assay: Wheat powdery mildew soil irrigation treatment test; format: in vivo; conditions: Blumeria graminis, 168 h; soil irrigation with 10 ml of 100 ppm drug solution per pot, wheat (Chihoku); inoculation after 8 to 10 days; lesion area ratio 7 days after inoculation
Protocol: as §1, §2
Pots (5.5 cm×5.5 cm) in which wheat seeds (variety: “Chihoku”) were disseminated were irrigated with 10 ml of a drug solution prepared by adding water to the emulsion (I) so as to have a concentration of the dihydropyrimidine compound of 100 ppm. After 8 to 10 days, conidiospores of a wheat powdery mildew pathogen (Erysiphe graminis f. sp. tritici) were sprinkled thereon for inoculation (treated group). As a control, wheat seedlings that were not treated with the drug were inoculated in the same manner as described above (untreated group). The seedlings were left to stand in a greenhouse at 20° C.
as §3

| SMILES | inhibition at 25 ppm (Aspergillus niger) [%] | pest or weed control at 125 ppm [1] [%] | pest or weed control at 125 ppm [2] [%] | pest or weed control at 100 g/100 kg seed [3] [%] | pest or weed control at 100 ppm [4] [%] |
| --- | --- | --- | --- | --- | --- |
| CCON=Cc1cn(CC(OCCC#N)c2cc(F)ccc2OC)c(=O)n(CC(C)(C)C(=O)NC(C)C)c1=O (stereo not shown) [A-7] | ≥ 50 | ≥ 75 |  |  |  |
| CCON=Cc1cn(CC(OCCC#N)c2cc(F)ccc2OC)c(=O)n(CCNC(=O)OC(C)(C)C)c1=O (stereo not shown) [A-18] |  | ≥ 75 | ≥ 75 |  |  |
| CCON=C(C)c1cn(CC(O)c2cc(F)ccc2OC)c(=O)n(C(C)C(=O)NC(C)C)c1=O (stereo not shown) [A-31] |  | ≥ 75 | ≥ 75 |  |  |
| CCO/N=C(\C)c1cn(CC(O)c2cc(F)ccc2OC)c(=O)n(CCNC(=O)C(C)C)c1=O (stereo not shown) [A-37, N-(2-(5-(1-(ethoxyimino)ethyl)-3-(2-(5-fluoro-2-methoxyphenyl)-2-hydroxyethyl)-2,6-dioxo-3,6-dihydropyrimidin-1(2H)-yl)ethyl)isobutyramide] | ≥ 50 | ≥ 75 |  |  |  |
| CCO/N=C(\C)c1cn(CC(OCCC#N)c2cc(F)ccc2OC)c(=O)n(CCNC(=O)C(C)C)c1=O (stereo not shown) [A-38, N-(2-(3-(2-(2-cyanoethoxy)-2-(5-fluoro-2-methoxyphenyl)ethyl)-5-(1-(ethoxyimino)ethyl)-2,6-dioxo-3,6-dihydropyrimidin-1(2H)-yl)ethyl)isobutyramide] | ≥ 50 | ≥ 75 | ≥ 75 |  |  |
| CCO/N=C(\C)c1cn(CC(O)c2cc(F)ccc2OC)c(=O)n(C[C@H](C)NC(=O)C(C)C)c1=O (stereo partly shown) [A-42] | ≥ 50 | ≥ 75 | ≥ 75 |  |  |
| CCO/N=C(\C)c1cn(/C=C(\OC(=O)C(C)C)c2cc(F)ccc2OC)c(=O)n(C[C@H](C)NC(=O)C(C)C)c1=O [A-46] |  | ≥ 75 | ≥ 75 |  |  |
| C/C(=N\OC(C)C)c1cn(CC(O)c2ccccc2OC(C)C)c(=O)n(C[C@H](C)NC(=O)C(C)C)c1=O (stereo partly shown) [A-49] |  | ≥ 75 | ≥ 75 |  |  |
| CCOc1ccccc1C(O)Cn1cc(/C(C)=N/OC(C)C)c(=O)n(C[C@H](C)NC(=O)C(C)C)c1=O (stereo partly shown) [A-51] | ≥ 50 | ≥ 75 | ≥ 75 |  |  |
| COc1ccc(F)cc1C(O)Cn1cc(C=NOC(C)C)c(=O)n(C(C)C(=O)N2CCOCC2)c1=O (stereo not shown) [A-71] |  | ≥ 75 | ≥ 75 |  |  |
| COc1ccc(F)cc1C(O)Cn1cc(C=NOC(C)C)c(=O)n(C(C)CNC(=O)C(C)C)c1=O (stereo not shown) [A-79] | ≥ 50 | ≥ 75 | ≥ 75 |  |  |
| COc1ccc(F)cc1C(Cn1cc(C=NOC(C)C)c(=O)n(C(C)C(=O)N2CCC2)c1=O)OCCC#N (stereo not shown) [A-81] |  | ≥ 75 | ≥ 75 |  |  |
| COc1ccc(F)cc1C(Cn1cc(C=NOC(C)C)c(=O)n(CC(=O)NC(C)C)c1=O)OCCC#N (stereo not shown) [A-84] |  | ≥ 75 | ≥ 75 |  |  |
| COc1ccc(F)cc1C(O)Cn1cc(C=NOC(C)C)c(=O)n(C(C)C(=O)N2CCC2)c1=O (stereo not shown) [A-86] |  |  | ≥ 75 |  |  |
| CCO/N=C(\C)c1cn(CC(OC(C)=O)c2cc(F)ccc2OC)c(=O)n(CCNC(=O)C(C)C)c1=O (stereo not shown) [A-88] | ≥ 50 | ≥ 75 |  |  |  |
| COc1ccc(F)cc1C(O)Cn1cc(C=NOC(C)C)c(=O)n(C(C)C(=O)N2CCCCC2)c1=O (stereo not shown) [A-90] | ≥ 50 | ≥ 75 | ≥ 75 |  |  |
| CCON=Cc1cn(CC(O)c2cc(F)ccc2OC)c(=O)n(CC(C)(C)NC(=O)C(C)C)c1=O (stereo not shown) [A-92] |  |  | ≥ 75 |  |  |
| CCON=Cc1cn(CC(O)c2cc(F)ccc2OC)c(=O)n(C(C)C(=O)NC(C)C)c1=O (stereo not shown) [A-94] |  | ≥ 75 | ≥ 75 |  |  |
| CCO/N=C(\C)c1cn(CC(OC)c2cc(F)ccc2OC)c(=O)n(CCNC(=O)C(C)C)c1=O (stereo not shown) [A-96] | ≥ 50 | ≥ 75 | ≥ 75 |  |  |

| SMILES | inhibition at 25 ppm (Aspergillus niger) [%] | pest or weed control at 125 ppm [1] [%] | pest or weed control at 125 ppm [2] [%] | pest or weed control at 100 g/100 kg seed [3] [%] | pest or weed control at 100 ppm [4] [%] |
| --- | --- | --- | --- | --- | --- |
| CCO/N=C(\C)c1cn(CC(OC)c2cc(F)ccc2OC)c(=O)n(CCN(C)C(=O)C(C)C)c1=O (stereo not shown) [A-97] | ≥ 50 | ≥ 75 | ≥ 75 |  |  |
| COc1ccc(F)cc1C(Cn1cc(/C(C)=N/OC(C)C)c(=O)n(CCNC(=O)C(C)C)c1=O)OCCC#N (stereo not shown) [A-101] | ≥ 50 | ≥ 75 | ≥ 75 |  |  |
| COc1ccc(F)cc1C(O)Cn1cc(/C(C)=N/OC(C)C)c(=O)n(CCNC(=O)C(C)C)c1=O (stereo not shown) [A-102] | ≥ 50 | ≥ 75 | ≥ 75 |  |  |
| CCON=Cc1cn(CCc2ccccc2OC)c(=O)n(C(C)C(=O)N2CCCCC2)c1=O (stereo not shown) [A-105] |  | ≥ 75 | ≥ 75 |  |  |
| CCO/N=C(\C)c1nn(CC(O)c2cc(F)ccc2OC)c(=O)n(C[C@H](C)NC(=O)C(C)C)c1=O (stereo partly shown) [B-1] |  |  | ≥ 75 |  |  |
| CCO/N=C(\C)c1nn(CC(OCCC#N)c2cc(F)ccc2OC)c(=O)n(C(C)C(=O)NC(C)C)c1=O (stereo not shown) [B-3] |  | ≥ 75 | ≥ 75 |  |  |
| CC[C@@H](Cn1c(=O)c(/C(C)=N/OC(C)C)cn(CC(O)c2cc(F)ccc2OC)c1=O)NC(=O)N(C)C (stereo partly shown) [C-54] | ≥ 50 |  |  | ≥ 75 |  |
| CCC(=O)N[C@@H](CC)Cn1c(=O)c(/C(C)=N/OC(C)C)cn(CC(O)c2cc(F)ccc2OC)c1=O (stereo partly shown) [C-56] | ≥ 50 |  |  | ≥ 75 |  |
| CCN(CC)C(=O)N[C@H](Cn1c(=O)c(/C(C)=N/OC(C)C)cn(CC(O)c2cc(F)ccc2OC)c1=O)C(C)C (stereo partly shown) [C-67] |  |  |  |  | ≥ 75 |
| COc1ccccc1C(O)Cn1cc(/C(C)=N/OC(C)C)c(=O)n(C[C@@H](NC(=O)c2ccccc2)C(C)C)c1=O (stereo partly shown) [C-85] |  |  |  | ≥ 75 |  |
| CCN(C)C(=O)N[C@H](Cn1c(=O)c(/C(C)=N/OC(C)C)cn(CC(O)c2cc(F)ccc2OC)c1=O)C(C)C (stereo partly shown) [C-89] | ≥ 50 |  |  | ≥ 75 |  |
| COc1ccccc1C(O)Cn1cc(/C(C)=N/OC(C)C)c(=O)n(C[C@@H](NC(=O)CC(C)C)C(C)C)c1=O (stereo partly shown) [C-97] |  |  |  | ≥ 75 |  |
| COc1ccc(F)cc1C(O)Cn1cc(/C(C)=N/OC(C)C)c(=O)n(C[C@@H](NC(=O)C(C)(C)C)C(C)C)c1=O (stereo partly shown) [C-112] | ≥ 50 |  |  | ≥ 75 |  |
| CCCC(=O)N[C@H](Cn1c(=O)c(/C(C)=N/OC(C)C)cn(CC(O)c2cc(F)ccc2OC)c1=O)C(C)C (stereo partly shown) [C-115] | ≥ 50 |  |  | ≥ 75 |  |
| CCCC(=O)N[C@@H](C)Cn1c(=O)c(/C(C)=N/OC(C)C)cn(CC(O)c2cc(F)ccc2OC)c1=O (stereo partly shown) [C-135] | ≥ 50 |  |  | ≥ 75 |  |
| COc1ccc(F)cc1C(O)Cn1cc(/C(C)=N/OC(C)C)c(=O)n(C[C@H](CCSC)NC(=O)C(C)C)c1=O (stereo partly shown) [C-176] | ≥ 50 |  |  | ≥ 75 |  |
| COc1cc(F)c(F)cc1C(O)Cn1cc(/C(C)=N/OC(C)C)c(=O)n(C[C@H](C)NC(=O)C(C)C)c1=O (stereo partly shown) [C-182] | ≥ 50 |  |  |  | ≥ 75 |
| COc1ccc(F)cc1C(O)Cn1cc(/C(C)=N/OC(C)C)c(=O)n(C[C@H](C)NC(=O)NC(C)C)c1=O (stereo partly shown) [C-191] |  |  |  |  | ≥ 75 |
